Patent US20070208166A1, “Tao Kinase Modulators And Method Of Use” (Exelixis, Inc., priority 2003, published 2007)

Key:
Format in all cases: biochemical
[1] = target: T1, TAO (Homo sapiens, UniProt Q9UL54); assay: TAO Luciferase-Coupled Chemiluminescent Kinase assay (LCCA); details: 2 μM ATP, 10 μM MBP, 12 nM TAO, 2 hours; read-out: TAO inhibition IC50
T1 sequence (Q9UL54 1-1235): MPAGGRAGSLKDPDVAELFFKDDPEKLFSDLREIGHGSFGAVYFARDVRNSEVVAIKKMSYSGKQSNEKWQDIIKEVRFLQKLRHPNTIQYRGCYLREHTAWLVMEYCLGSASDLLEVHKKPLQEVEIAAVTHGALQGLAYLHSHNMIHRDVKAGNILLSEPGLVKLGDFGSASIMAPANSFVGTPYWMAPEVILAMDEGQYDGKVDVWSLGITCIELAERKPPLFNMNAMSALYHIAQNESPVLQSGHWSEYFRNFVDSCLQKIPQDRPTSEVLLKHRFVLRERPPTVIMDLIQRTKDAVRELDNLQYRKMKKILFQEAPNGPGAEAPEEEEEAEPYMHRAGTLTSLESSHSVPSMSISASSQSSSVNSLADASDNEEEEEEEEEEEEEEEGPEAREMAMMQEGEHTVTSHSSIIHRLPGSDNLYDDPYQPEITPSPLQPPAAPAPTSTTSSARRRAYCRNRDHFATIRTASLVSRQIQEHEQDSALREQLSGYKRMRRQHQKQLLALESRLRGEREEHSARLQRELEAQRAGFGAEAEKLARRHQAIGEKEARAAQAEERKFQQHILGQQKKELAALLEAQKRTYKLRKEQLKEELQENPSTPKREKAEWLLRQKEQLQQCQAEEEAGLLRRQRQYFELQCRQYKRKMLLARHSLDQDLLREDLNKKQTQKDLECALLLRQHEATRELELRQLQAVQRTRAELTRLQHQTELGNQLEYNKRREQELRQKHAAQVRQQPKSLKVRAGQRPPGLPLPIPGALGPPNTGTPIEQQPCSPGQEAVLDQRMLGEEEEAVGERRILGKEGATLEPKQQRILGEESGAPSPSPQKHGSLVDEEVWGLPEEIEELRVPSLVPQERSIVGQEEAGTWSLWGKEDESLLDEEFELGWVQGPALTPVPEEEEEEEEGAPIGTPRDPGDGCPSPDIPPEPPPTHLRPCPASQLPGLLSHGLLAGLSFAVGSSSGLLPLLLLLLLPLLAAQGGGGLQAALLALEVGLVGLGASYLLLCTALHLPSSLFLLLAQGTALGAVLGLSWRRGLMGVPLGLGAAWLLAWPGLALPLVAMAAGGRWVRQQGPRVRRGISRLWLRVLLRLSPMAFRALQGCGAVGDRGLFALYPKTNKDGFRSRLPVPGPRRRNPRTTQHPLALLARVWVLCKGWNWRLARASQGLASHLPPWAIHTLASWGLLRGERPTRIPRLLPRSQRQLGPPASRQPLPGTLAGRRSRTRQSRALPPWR
Protocol: (§1) Kinase activity and compound inhibition are investigated using one or more of the three assay formats described below. The ATP concentrations for each assay are selected to be close to the Michaelis-Menten constant (KM) for each individual kinase. Dose-response experiments are performed at 10 different inhibitor concentrations in a 384-well plate format. The data are fitted to four-parameter equation (2) below; where Y is the observed signal, X is the inhibitor concentration, Min is the background signal in the absence of enzyme (0% enzyme activity), Max is the signal in the absence of inhibitor (100% enzyme activity), IC50 is the inhibitor concentration at 50% enzyme inhibition and H represents the empirical Hill's slope to measure the cooperativity. Typically H is close to unity. Y=Min+(Max−Min)/(1+(X/IC50)ˆH) Equation (2) KIAA 1361 Assay: […]
(§2) TAO biochemical activity was assessed using a Luciferase-Coupled Chemiluminescent Kinase assay (LCCA) format. Kinase activity was measured as the percent ATP remaining following the kinase reaction. Remaining ATP was detected by luciferase-luciferin-coupled chemiluminescence. Specifically, the reaction was initiated by mixing test compounds, 2 μM ATP, 10 μM MBP and 12 nM TAO (baculovirus expressed human KIAA 1361 kinase domain 2-322) in a 20 uL assay buffer (20 mM Tris-HCL pH7.5, 10 mM MgCl2, 0.02% Triton X-100, 100 mM DTT, 2 mM MnCl2). The mixture is incubated at ambient temperature for 2 hours after which 20 uL luciferase-luciferin mix is added and the chemiluminescent signal read using a Wallac Victor^2 reader. The luciferase-luciferin mix consists of 50 mM BEPES, pH 7.8, 8.5 ug/mL oxalic acid (pH 7.8), 5 (or 50) mM DTT, 0.4% Triton X-100, 0.25 mg/nL coenzyme A, 63 uM AMP, 28 ug/mL luciferin and 40,000 units of light/mL luciferase.

[2] = target: T2, KIAA 1361 (baculovirus expressed human KIAA 1361 kinase domain 2-322) (Homo sapiens, UniProt Q7L7X3); assay: KIAA 1361 Luciferase-Coupled Chemiluminescent Kinase assay (LCCA); details: 2 μM ATP, 10 μM MBP, 12 nM KIAA 1361, 2 hours; read-out: KIAA1361 inhibition IC50
T2 construct: human KIAA 1361 kinase domain 2-322; made in house
T2 sequence (Q7L7X3 2-322): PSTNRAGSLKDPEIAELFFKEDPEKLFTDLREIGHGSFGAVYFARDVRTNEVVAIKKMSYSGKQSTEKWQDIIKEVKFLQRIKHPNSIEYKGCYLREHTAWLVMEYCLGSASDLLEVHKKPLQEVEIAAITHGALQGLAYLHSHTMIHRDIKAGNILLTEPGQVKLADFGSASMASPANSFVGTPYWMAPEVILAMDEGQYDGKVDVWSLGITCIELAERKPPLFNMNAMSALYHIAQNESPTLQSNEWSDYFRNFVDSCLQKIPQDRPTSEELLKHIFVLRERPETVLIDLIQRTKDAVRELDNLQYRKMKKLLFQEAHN
Protocol: as §1
as §2, with “KIAA 1361” for “TAO”, “HEPES,” for “BEPES,”, “mg/mL” for “mg/nL”

[3] = target: T3, JIK (Homo sapiens, UniProt Q9H2K8); assay: JIK Luciferase-Coupled Chemiluminescent Kinase assay (LCCA); details: 2 μM ATP, 10 μM MBP, 6 nM JIK, 2 hours; read-out: JIK inhibition IC50
T3 construct: 6 nM JIK (baculovirus expressed human KIAA 1361 kinase domain2-318); made in house
T3 sequence (Q9H2K8 2-318): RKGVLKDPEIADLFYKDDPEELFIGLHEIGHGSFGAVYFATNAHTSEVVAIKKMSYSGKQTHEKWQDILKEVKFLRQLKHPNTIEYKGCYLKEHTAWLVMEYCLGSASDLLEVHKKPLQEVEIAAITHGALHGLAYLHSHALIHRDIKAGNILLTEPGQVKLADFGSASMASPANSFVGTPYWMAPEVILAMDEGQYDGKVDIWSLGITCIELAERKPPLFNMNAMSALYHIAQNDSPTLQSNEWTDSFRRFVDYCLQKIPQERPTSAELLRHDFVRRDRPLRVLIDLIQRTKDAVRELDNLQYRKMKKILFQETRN
Protocol: as §1
as §2, with “JIK” for “TAO”, “6” for “12”, “domain2-318)” for “domain 2-322)”, “HEPES,” for “BEPES,”, “mg/mL” for “mg/nL”

SMILES	IC50 [1] [nM]	IC50 [2] [nM]	IC50 [3] [nM]
COc1cc2cc(C(=O)N[C@@H](Cc3c[nH]c4ccccc34)C(=O)NC3CCCc4ccccc43)[nH]c2cc1OC (stereo partly drawn) [Entry 13, Nalpha-{[5,6-bis(methyloxy)-1H-indol-2-yl]carbonyl}-N-(1,2,3,4-tetrahydronaphthalen-1-yl)tryptophanamide]	500 to 5000	50 to 500	< 50
Cc1csc(NC(=O)CNC(=O)CC(NC(=O)c2ccccc2)c2ccccc2)n1 (stereo not drawn) [Entry 93, N-[3-({2-[(4-methyl-1,3-thiazol-2-yl)amino]-2-oxoethyl}amino)-3-oxo-1-phenylpropyl]benzamide]	> 5000	> 5000	> 5000
CCCCOc1ccc(C(=O)NC(C)C(=O)NC2CCc3ccccc3C2)cc1 (stereo not drawn) [Entry 18, 4-(butyloxy)-N-[1-methyl-2-oxo-2-(1,2,3,4-tetrahydronaphthalen-2-ylamino)ethyl]benzamide]	500 to 5000	50 to 500	50 to 500
O=C(NCC1COc2ccccc2O1)c1ccc2c(c1)NC(=O)c1ccccc1N2 (stereo not drawn) [Entry 42, N-(2,3-dihydro-1,4-benzodioxin-2-ylmethyl)-11-oxo-10,11-dihydro-5H-dibenzo[b,e][1,4]diazepine-8-carboxamide]	50 to 500	50 to 500	< 50
CCc1ccc(-c2ccc(C(=O)NCC(=O)NC3CCCc4ccccc43)cc2)cc1 (stereo not drawn) [Entry 4, 4′-ethyl-N-[2-oxo-2-(1,2,3,4-tetrahydronaphthalen-1-ylamino)ethyl]biphenyl-4-carboxamide]	< 50	< 50	< 50
CCc1ccc(-c2ccc(C(=O)NCC(=O)Nc3nc4ccc(OC)cc4s3)cc2)cc1 [Entry 64, 4′ethyl-N-(2-{[6-(methyloxy)-1,3-benzothiazol-2-yl]amino}-2-oxoethyl)biphenyl-4-carboxamide]	> 5000	> 5000	> 5000
COc1ccc(/C=C/C(=O)N2Cc3[nH]cnc3CC2C(=O)NCCc2cccc(Cl)c2)cc1OC (stereo not drawn) [Entry 15, 5-{(2E)-3-[3,4-bis(methyloxy)phenyl]prop-2-enoyl}-N-[2-(3-chlorophenyl)ethyl]-4,5,6,7-tetrahydro-3H-imidazol[4,5-c]pyridine-6-carboxamide]	500 to 5000	50 to 500	< 50
O=C(CNC(=O)c1ccc2c(c1)CCCC2)NC1CCCc2ccccc21 (stereo not drawn) [Entry 82, N-[2-oxo-2-(1,2,3,4-tetrahydronaphthalen-1-ylamino)ethyl]-5,6,7,8-tetrahydronaphthalene-2-carboxamide]	> 5000	> 5000	500 to 5000
CCc1ccc(-c2ccc(C(=O)NCC(=O)NC(CC)c3ccccc3)cc2)cc1 (stereo not drawn) [Entry 83, 4′-ethyl-N-{2-oxo-2-[(1-phenylpropyl)amino]ethyl}biphenyl-4-carboxamide]	> 5000	500 to 5000	50 to 500
O=C(CC(NC(=O)c1ccccc1)c1ccccc1)NCC(=O)Nc1nc2ccc(O)cc2s1 (stereo not drawn) [Entry 98, N-[3-({2-[(6-hydroxy-1,3-benzothiazol-2-yl)amino]-2-oxoethyl}amino)-3-oxo-1-phenylpropyl]benzamide]	50 to 500	50 to 500	< 50
COc1ccc(/C=C/C(=O)N[C@@H](Cc2c[nH]c3ccccc23)C(=O)NC2CCCc3ccccc32)cc1OC (stereo partly drawn) [Entry 17, Nalpha-{(2E)-3-[3,4-bis(methyloxy)phenyl]prop-2-enoyl}-N-(1,2,3,4-tetrahydronaphthalen-1-yl)tryptophanamide]	500 to 5000	50 to 500	50 to 500
O=C(COc1ccc(OC(F)(F)F)cc1)NCC(=O)NC1CCCc2ccccc21 (stereo not drawn) [Entry 31, N-(1,2,3,4-tetrahydronaphthalen-1-yl)-N˜2˜-[({4-[(trifluoromethyl)oxy]phenyl}oxy)acetyl]glycinamide]	500 to 5000	500 to 5000	500 to 5000
